Patent publication US10030020B2, “Spirocycle compounds and methods of making and using same” (Abide Therapeutics, Inc., priority 2016, dated 2018)

Key:
FAAH [1] = target: T1, FAAH (Mus musculus (Mouse), UniProt O08914); assay: In vitro competitive activity-based protein profiling (mouse brain membrane fraction or cell lysates), FAAH band; assay type: biochemical; details: mouse proteome; for IC50: competitive ABPP; for inhibition at 1 µM: read-out: FAAH % Inh 1 μM (mouse)
Outline: (§1)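 Mouse proteome samples (brain membrane fraction or cell lysate, 1.0 mg/mL protein) were pretreated with varying inhibitor concentrations and subsequently probed with fluorophosphonate-rhodamine, each step lasting 30 min at 37° C. Labelled proteins were separated by SDS-PAGE, and band fluorescence was imaged and quantified.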

MAGL [2] = target: T2, MAGL (Mus musculus (Mouse), UniProt O35678); assay: Mouse brain proteomes from inhibitor treated mice (oral gavage, sacrificed 4 h after administration, ABPP analysis); assay type: in vivo, mouse (C57Bl/6J); details: 5 mg/kg oral gavage
Method: (§2) Preparation of Mouse Brain Proteomes from Inhibitor Treated Mice.
(§3) Inhibitors were administered to wild-type C57Bl/6J by oral gavage in a vehicle, e.g. PEG400/Ethanol/PBS (7/2/1). Each animal was sacrificed 4 h following administration and brain proteomes were prepared and analyzed according to previously established methods (See Niphakis, M. J., et al. (2011) ACS Chem. Neurosci. and Long, J. Z., et al. Nat. Chem. Biol. 5:37-44). Data from this assay is shown in Table 2 (% inhibition at 5 mg/kg).

ABHD6 [3] = target: T3, ABHD6 (Mus musculus (Mouse), UniProt Q8R2Y0); assay: Mouse brain proteomes from inhibitor treated mice (oral gavage, sacrificed 4 h after administration, ABPP analysis), ABHD6; assay type: in vivo, mouse (C57Bl/6J); details: 5 mg/kg oral gavage
Method: as §2, §3

ABHD6 [4] = target: T3, ABHD6; assay: In vitro competitive activity-based protein profiling (mouse brain membrane fraction or cell lysates), ABHD6 band; assay type: biochemical; details: mouse proteome; for IC50: competitive ABPP; for inhibition at 1 µM: read-out: ABHD6 % Inh 1 μM (mouse)
Outline: as §1

MAGL [5] = target: T2, MAGL; assay: In vitro competitive activity-based protein profiling (mouse brain membrane fraction or cell lysates), MAGL band; assay type: biochemical; details: mouse proteome; for IC50: competitive ABPP; for inhibition at 1 µM: read-out: MAGL % Inh 1 μM (mouse)
Method: In Vitro Competitive Activity-Based Protein Profiling.
Proteomes (mouse brain membrane fraction or cell lysates) (50 μL, 1.0 mg/mL total protein concentration) were preincubated with varying concentrations of inhibitors at 37° C. After 30 min, FP—Rh (1.0 μL, 50 μM in DMSO) was added and the mixture was incubated for another 30 min at 37° C. Reactions were quenched with SDS loading buffer (50 μL-4×) and run on SDS-PAGE.

FAAH [6] = target: T1, FAAH; assay: Mouse brain proteomes from inhibitor treated mice (oral gavage, sacrificed 4 h after administration, ABPP analysis), FAAH; assay type: in vivo, mouse (C57Bl/6J); details: 5 mg/kg oral gavage
Method: as §2, §3

T2 sequence (O35678 whole entry): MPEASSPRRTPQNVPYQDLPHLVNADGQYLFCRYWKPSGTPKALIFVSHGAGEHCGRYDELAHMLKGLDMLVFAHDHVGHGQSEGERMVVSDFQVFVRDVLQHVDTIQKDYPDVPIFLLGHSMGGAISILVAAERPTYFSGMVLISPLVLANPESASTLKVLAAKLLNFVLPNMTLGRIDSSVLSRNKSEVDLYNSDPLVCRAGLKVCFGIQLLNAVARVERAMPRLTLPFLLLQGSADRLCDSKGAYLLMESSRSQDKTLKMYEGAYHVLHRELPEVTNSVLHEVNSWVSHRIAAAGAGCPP
T1 sequence (O08914 whole entry): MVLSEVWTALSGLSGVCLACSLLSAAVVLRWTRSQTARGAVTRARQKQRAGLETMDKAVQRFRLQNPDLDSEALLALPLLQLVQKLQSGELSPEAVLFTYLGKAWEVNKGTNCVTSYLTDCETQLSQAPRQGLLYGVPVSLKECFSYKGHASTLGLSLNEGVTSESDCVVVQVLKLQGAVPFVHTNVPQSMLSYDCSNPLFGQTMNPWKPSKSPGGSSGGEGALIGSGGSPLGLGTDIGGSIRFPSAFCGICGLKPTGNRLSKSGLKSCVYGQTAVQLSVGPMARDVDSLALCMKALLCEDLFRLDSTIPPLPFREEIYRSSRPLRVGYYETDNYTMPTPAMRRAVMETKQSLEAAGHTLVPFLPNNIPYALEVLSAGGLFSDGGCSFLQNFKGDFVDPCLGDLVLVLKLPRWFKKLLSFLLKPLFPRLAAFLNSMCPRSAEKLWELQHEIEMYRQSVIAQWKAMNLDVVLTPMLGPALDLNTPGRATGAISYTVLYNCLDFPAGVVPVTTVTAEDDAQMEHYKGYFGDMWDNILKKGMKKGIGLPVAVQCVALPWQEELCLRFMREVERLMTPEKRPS
T3 sequence (Q8R2Y0 whole entry): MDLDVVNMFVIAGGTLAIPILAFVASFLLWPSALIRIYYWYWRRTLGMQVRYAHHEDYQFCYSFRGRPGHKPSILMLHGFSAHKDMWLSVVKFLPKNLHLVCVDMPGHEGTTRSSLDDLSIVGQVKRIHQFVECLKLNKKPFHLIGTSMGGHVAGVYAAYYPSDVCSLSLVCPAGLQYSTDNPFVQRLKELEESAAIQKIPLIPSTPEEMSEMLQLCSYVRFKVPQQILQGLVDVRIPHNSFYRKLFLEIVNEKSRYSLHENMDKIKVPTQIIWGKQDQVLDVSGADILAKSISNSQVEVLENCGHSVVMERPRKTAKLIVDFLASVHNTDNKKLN

Structure (SMILES) | IC50 (FAAH [1]) [nM] | MAGL % Inh 5 mg/kg (mouse) (MAGL [2]) | ABHD6 % Inh 5 mg/kg (mouse) (ABHD6 [3]) | IC50 (ABHD6 [4]) [nM] | IC50 (MAGL [5]) [nM] | FAAH % Inh 5 mg/kg (mouse) (FAAH [6]) | inhibition at 1 µM (FAAH [1]) [%] | inhibition at 1 µM (ABHD6 [4]) [%] | inhibition at 1 µM (MAGL [5]) [%]
COc1cccc(CN2CCCC23CCN(C(=O)OC(C(F)(F)F)C(F)(F)F)CC3)c1Cl [Example 7, 1,1,1,3,3,3-Hexafluoropropan-2-yl 1-(2-chloro-3-methoxybenzyl)-1,8-diazaspiro[4.5]decane-8-carboxylate] | > 1000 | ### (### is ≥75%) | # (# is <25%) | > 1000 | < 100 | ### (### is ≥75%) |  |  | 
COc1ccc(F)cc1CN1CCCC12CCN(C(=O)OC(C(F)(F)F)C(F)(F)F)CC2 [Example 8, 1,1,1,3,3,3-Hexafluoropropan-2-yl 1-(5-fluoro-2-methoxybenzyl)-1,8-diazaspiro[4.5]decane-8-carboxylate] | > 1000 | ### (### is ≥75%) | ## (## is equal to or greater than 25% but less than 75%) | > 1000 | < 100 | ## (## is equal to or greater than 25% but less than 75%) |  |  | 
COc1cc(Cl)ccc1CN1CCCC12CCN(C(=O)OC(C(F)(F)F)C(F)(F)F)CC2 [Example 9, 1,1,1,3,3,3-Hexafluoropropan-2-yl 1-(4-chloro-2-methoxybenzyl)-1,8-diazaspiro[4.5]decane-8-carboxylate] | > 1000 | ### (### is ≥75%) | # (# is <25%) | > 1000 | < 100 | # (# is <25%) |  |  | 
COc1c(Cl)cccc1CN1CCCC12CCN(C(=O)OC(C(F)(F)F)C(F)(F)F)CC2 [Example 10, 1,1,1,3,3,3-Hexafluoropropan-2-yl 1-(3-chloro-2-methoxybenzyl)-1,8-diazaspiro[4.5]decane-8-carboxylate] | > 1000 | ### (### is ≥75%) | # (# is <25%) | > 1000 | < 100 | ## (## is equal to or greater than 25% but less than 75%) |  |  | 
O=C(OC(C(F)(F)F)C(F)(F)F)N1CCC2(CCN(Cc3ccc(Cl)cc3N3CCCC3)C2)CC1 [Example 17, 1,1,1,3,3,3-Hexafluoropropan-2-yl 2-(4-chloro-2-(pyrrolidin-1-yl)benzyl)-2,8-diazaspiro[4.5]decane-8-carboxylate] | > 1000 | ## (## is equal to or greater than 25% but less than 75%) | # (# is <25%) | > 1000 | < 100 | # (# is <25%) | < 25 | ≥ 75 | > 75
O=C(OC(C(F)(F)F)C(F)(F)F)N1CCC2(CCN(Cc3c(N4CC5COCC5C4)cccc3C(F)(F)F)C2)CC1 (stereo not drawn) [Example 18, 1,1,1,3,3,3-Hexafluoropropan-2-yl 2-(2-(tetrahydro-1H-furo[3,4-c]pyrrol-5(3H)-yl)-6-(trifluoromethyl)benzyl)-2,8-diazaspiro[4.5]decane-8-carboxylate] | > 1000 | ## (## is equal to or greater than 25% but less than 75%) | # (# is <25%) | > 1000 | < 100 | # (# is <25%) | < 25 | 25 to 75 | > 75
O=C(OC(C(F)(F)F)C(F)(F)F)N1CCC2(CCCN2Cc2ccc(Cl)cc2N2CCN(CCF)CC2)CC1 [Example 19, 1,1,1,3,3,3-Hexafluoropropan-2-yl 1-(4-chloro-2-(4-(2-fluoroethyl)piperazin-1-yl)benzyl)-1,8-diazaspiro[4.5]decane-8-carboxylate] | > 1000 | ## (## is equal to or greater than 25% but less than 75%) | # (# is <25%) | > 1000 | < 100 | # (# is <25%) |  |  | 
O=C(OC(C(F)(F)F)C(F)(F)F)N1CCC2(CCN(Cc3ccc(Cl)cc3N3CCOCC3)C2)CC1 [Example 21, 1,1,1,3,3,3-Hexafluoropropan-2-yl 2-(4-chloro-2-morpholinobenzyl)-2,8-diazaspiro[4.5]decane-8-carboxylate] | > 1000 | ### (### is ≥75%) | ## (## is equal to or greater than 25% but less than 75%) | 100 to 1000 | < 100 | # (# is <25%) | < 25 | ≥ 75 | > 75
O=C(OC(C(F)(F)F)C(F)(F)F)N1CCC2(CCN(Cc3ccc(C(F)(F)F)cc3N3CCOCC3)C2)CC1 [Example 22, 1,1,1,3,3,3-Hexafluoropropan-2-yl 2-(2-morpholino-4-(trifluoromethyl)benzyl)-2,8-diazaspiro[4.5]decane-8-carboxylate] | > 1000 | ### (### is ≥75%) | # (# is <25%) | 100 to 1000 | < 100 | # (# is <25%) | < 25 | ≥ 75 | > 75
O=C(OC(C(F)(F)F)C(F)(F)F)N1CCC2(CCN(Cc3ccc(C(F)(F)F)cc3N3CCCCC3)C2)CC1 [Example 23, 1,1,1,3,3,3-Hexafluoropropan-2-yl 2-(2-(piperidin-1-yl)-4-(trifluoromethyl)benzyl)-2,8-diazaspiro[4.5]decane-8-carboxylate] | > 1000 | ## (## is equal to or greater than 25% but less than 75%) | # (# is <25%) | > 1000 | < 100 | # (# is <25%) | < 25 | < 25 | > 75
O=C(OC(C(F)(F)F)C(F)(F)F)N1CCC2(CCN(Cc3ccc(Cl)cc3N3CCCCC3)C2)CC1 [Example 24, 1,1,1,3,3,3-Hexafluoropropan-2-yl 2-(4-chloro-2-(piperidin-1-yl)benzyl)-2,8-diazaspiro[4.5]decane-8-carboxylate] | > 1000 | ### (### is ≥75%) | # (# is <25%) | > 1000 | < 100 | # (# is <25%) | < 25 | < 25 | > 75
O=C(OC(C(F)(F)F)C(F)(F)F)N1CCC2(CCN(Cc3ccc(Cl)cc3N3CC4COCC4C3)C2)CC1 (stereo not drawn) [Example 25, 1,1,1,3,3,3-Hexafluoropropan-2-yl 2-(4-chloro-2-(tetrahydro-1H-furo[3,4-c]pyrrol-5(3H)-yl)benzyl)-2,8-diazaspiro[4.5]decane-8-carboxylate] | > 1000 | ## (## is equal to or greater than 25% but less than 75%) | # (# is <25%) | 100 to 1000 | < 100 | # (# is <25%) | < 25 | ≥ 75 | > 75
O=C(OC(C(F)(F)F)C(F)(F)F)N1CCC2(CCN(Cc3ccc(C(F)(F)F)cc3N3CC4COCC4C3)C2)CC1 (stereo not drawn) [Example 26, 1,1,1,3,3,3-Hexafluoropropan-2-yl 2-(2-(tetrahydro-1H-furo[3,4-c]pyrrol-5(3H)-yl)-4-(trifluoromethyl)benzyl)-2,8-diazaspiro[4.5]decane-8-carboxylate] | > 1000 | ## (## is equal to or greater than 25% but less than 75%) | # (# is <25%) | 100 to 1000 | < 100 | # (# is <25%) | < 25 | ≥ 75 | > 75
O=C(OC(C(F)(F)F)C(F)(F)F)N1CCC2(CCCN2Cc2cccc(OCCF)c2)CC1 [Example 27, 1,1,1,3,3,3-Hexafluoropropan-2-yl 1-(3-(2-fluoroethoxy)benzyl)-1,8-diazaspiro[4.5]decane-8-carboxylate] | > 1000 | ### (### is ≥75%) | # (# is <25%) | > 1000 | 100 to 1000 | # (# is <25%) |  |  | 
O=C(OC(C(F)(F)F)C(F)(F)F)N1CCC2(CCCN2Cc2ccc(Cl)c(OCCF)c2)CC1 [Example 28, 1,1,1,3,3,3-Hexafluoropropan-2-yl 1-(4-chloro-3-(2-fluoroethoxy)benzyl)-1,8-diazaspiro[4.5]decane-8-carboxylate] | > 1000 | ### (### is ≥75%) | # (# is <25%) | > 1000 | < 100 | # (# is <25%) |  |  | 
